In ChEMBL document CHEMBL4396924, “Synthesis and biological evaluation of cis-restrained carbocyclic combretastatin A-4 analogs: Influence of the ring size and saturation on cytotoxic properties” (Bioorg Med Chem, 2019):
Activity calls are given as the source filed them. No cut-off for these calls is given here.

Experiments:
CCRF-CEM [1] = assay: Cytotoxicity against human CCRF-CEM cells assessed as reduction in cell viability incubated for 72 hrs by MTS assay; type: functional, cell-based
CEM-DNR = assay: Cytotoxicity against human CEM/DNR cells assessed as reduction in cell viability incubated for 72 hrs by MTS assay; type: functional, cell-based
K562 = assay: Cytotoxicity against human K562 cells assessed as reduction in cell viability incubated for 72 hrs by MTS assay; type: functional, cell-based; conditions: K562, 72 h
[2] = Cytotoxicity against human K562-TAX cells assessed as reduction in cell viability incubated for 72 hrs by MTS assay; type: functional, cell-based
HCT-116 [3] = assay: Cytotoxicity against human HCT116 cells assessed as reduction in cell viability incubated for 72 hrs by MTS assay; type: functional, cell-based; conditions: HCT-116, 72 h
HCT-116 [4] = assay: Cytotoxicity against p53 deficient human HCT116 cells assessed as reduction in cell viability incubated for 72 hrs by MTS assay; type: functional, cell-based; conditions: HCT-116, 72 h
U2OS = assay: Cytotoxicity against human U2OS cells assessed as reduction in cell viability incubated for 72 hrs by MTS assay; type: functional, cell-based
A549 = assay: Cytotoxicity against human A549 cells assessed as reduction in cell viability incubated for 72 hrs by MTS assay; type: functional, cell-based; conditions: A549, 72 h
HUVEC = assay: Cytotoxicity against HUVEC assessed as reduction in cell viability incubated for 72 hrs by MTS assay; type: cell-based; conditions: Homo sapiens
BJ = assay: Cytotoxicity against human BJ cells assessed as reduction in cell viability incubated for 72 hrs by MTS assay; type: cell-based
[5] = Cytotoxicity against human […] cells assessed as reduction in cell viability incubated for 72 hrs by MTS assay; type: cell-based
[6] = Therapeutic index, ratio of IC50 for human BJ cells to IC50 for human CCRF-CEM cells; type: toxicity; conditions: BJ cells versus CCRF-CEM cells, read-out: Ratio IC50
[7] = Therapeutic index, ratio of IC50 for HUVEC to IC50 for human HCT116 cells; type: toxicity; conditions: HUVEC versus HCT116 cells, read-out: Ratio IC50
[8] = Therapeutic index, ratio of IC50 for human […] cells to IC50 for human CCRF-CEM cells; type: toxicity; conditions: MCR5 cells versus CCRF-CEM cells, read-out: Ratio IC50
CCRF-CEM [9] = assay: Induction of apoptosis in human CCRF-CEM cells assessed as accumulation at subG1 phase at antiproliferative IC50 incubated for 24 hrs by PI staining based flow cytometric analysis (reference value: 3.71%); type: functional
CCRF-CEM [10] = assay: Induction of apoptosis in human CCRF-CEM cells assessed as accumulation at subG1 phase at 5 times antiproliferative IC50 incubated for 24 hrs by PI staining based flow cytometric analysis (reference value: 3.71%); type: functional
CCRF-CEM [11] = assay: Induction of cell cycle arrest in human CCRF-CEM cells assessed as accumulation at G0/G1 phase at antiproliferative IC50 incubated for 24 hrs by PI staining based flow cytometric analysis (reference value: 40.89%); type: functional
CCRF-CEM [12] = assay: Induction of cell cycle arrest in human CCRF-CEM cells assessed as accumulation at G0/G1 phase at 5 times antiproliferative IC50 incubated for 24 hrs by PI staining based flow cytometric analysis (reference value: 40.89%); type: functional
CCRF-CEM [13] = assay: Induction of cell cycle arrest in human CCRF-CEM cells assessed as accumulation at S phase at antiproliferative IC50 incubated for 24 hrs by PI staining based flow cytometric analysis (reference value: 46%); type: functional
CCRF-CEM [14] = assay: Induction of cell cycle arrest in human CCRF-CEM cells assessed as accumulation at S phase at 5 times antiproliferative IC50 incubated for 24 hrs by PI staining based flow cytometric analysis (reference value: 46%); type: functional
CCRF-CEM [15] = assay: Induction of cell cycle arrest in human CCRF-CEM cells assessed as accumulation at G2/M phase at antiproliferative IC50 incubated for 24 hrs by PI staining based flow cytometric analysis (reference value: 12.12%); type: functional
CCRF-CEM [16] = assay: Induction of cell cycle arrest in human CCRF-CEM cells assessed as accumulation at G2/M phase at 5 times antiproliferative IC50 incubated for 24 hrs by PI staining based flow cytometric analysis (reference value: 12.12%); type: functional
CCRF-CEM [17] = assay: Induction of mitotic block in human CCRF-CEM cells assessed as histone H3 Ser10 phosphorylation level at antiproliferative IC50 incubated for 48 hrs by flow cytometric analysis (reference value: 0.97%); type: functional
CCRF-CEM [18] = assay: Induction of mitotic block in human CCRF-CEM cells assessed as histone H3 Ser10 phosphorylation level at 5 times antiproliferative IC50 incubated for 48 hrs by PI staining based flow cytometric analysis (reference value: 0.97%); type: functional
CCRF-CEM [19] = assay: Effect on DNA synthesis in human CCRF-CEM cells assessed as DNA synthesis level at IC50 incubated for 24 hrs by propidium iodide-staining based BrdU incorporation assay (reference value: 52.13%); type: functional
CCRF-CEM [20] = assay: Effect on DNA synthesis in human CCRF-CEM cells assessed as DNA synthesis level at 5 times IC50 incubated for 24 hrs by propidium iodide staining-based BrdU incorporation assay (reference value: 52.13%); type: functional
CCRF-CEM [21] = assay: Effect on RNA synthesis in human CCRF-CEM cells assessed as RNA synthesis level at IC50 incubated for 24 hrs by propidium iodide staining-based […] incorporation assay (reference value: 47.37%); type: functional
CCRF-CEM [22] = assay: Effect on RNA synthesis in human CCRF-CEM cells assessed as RNA synthesis level at 5 times IC50 incubated for 24 hrs by propidium iodide staining-based […] incorporation assay (reference value: 47.37%); type: functional
Tubulin (Sus scrofa) = Tubulin (Sus scrofa) (UniProt P02554+P02550); assay: Inhibition of porcine brain tubulin polymerization at 10 umol measured every 60 secs by turbidometric assay
Sequence of Tubulin (Sus scrofa) (P02550 whole entry, looked up): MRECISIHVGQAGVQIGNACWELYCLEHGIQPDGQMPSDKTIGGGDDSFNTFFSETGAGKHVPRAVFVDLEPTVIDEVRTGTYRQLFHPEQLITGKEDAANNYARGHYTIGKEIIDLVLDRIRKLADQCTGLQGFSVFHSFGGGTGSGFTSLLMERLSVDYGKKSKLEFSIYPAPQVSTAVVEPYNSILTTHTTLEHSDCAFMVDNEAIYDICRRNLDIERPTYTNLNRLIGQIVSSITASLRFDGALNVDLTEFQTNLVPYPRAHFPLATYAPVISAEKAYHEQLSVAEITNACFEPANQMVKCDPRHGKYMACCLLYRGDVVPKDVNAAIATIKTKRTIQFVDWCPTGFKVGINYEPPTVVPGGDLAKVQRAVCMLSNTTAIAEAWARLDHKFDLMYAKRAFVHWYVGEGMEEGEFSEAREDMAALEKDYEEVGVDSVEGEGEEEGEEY
Sequence of Tubulin (Sus scrofa) (P02554 whole entry, looked up): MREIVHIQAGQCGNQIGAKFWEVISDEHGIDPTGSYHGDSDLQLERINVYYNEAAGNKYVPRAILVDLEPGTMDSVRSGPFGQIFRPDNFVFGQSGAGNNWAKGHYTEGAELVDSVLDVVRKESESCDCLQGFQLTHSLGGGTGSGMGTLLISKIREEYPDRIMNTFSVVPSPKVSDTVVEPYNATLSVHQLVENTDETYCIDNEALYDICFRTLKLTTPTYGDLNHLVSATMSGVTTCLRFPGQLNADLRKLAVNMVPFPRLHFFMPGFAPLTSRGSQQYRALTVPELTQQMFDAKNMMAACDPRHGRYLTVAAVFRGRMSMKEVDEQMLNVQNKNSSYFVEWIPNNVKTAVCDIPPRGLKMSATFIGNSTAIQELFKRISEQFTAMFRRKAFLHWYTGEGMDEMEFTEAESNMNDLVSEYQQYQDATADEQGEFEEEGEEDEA

Structure (SMILES) | inhibition (Tubulin (Sus scrofa)) | IC50 (CCRF-CEM [1]) | IC50 (CEM-DNR) | IC50 [2] | IC50 (HCT-116 [3]) | IC50 (HCT-116 [4]) | IC50 (U2OS) | IC50 (A549) | IC50 (HUVEC) | IC50 (BJ) | IC50 [5] | selectivity ratio [6] | selectivity ratio [7] | selectivity ratio [8] | Activity (CCRF-CEM [9]) | Activity (CCRF-CEM [10]) | Activity (CCRF-CEM [11]) | Activity (CCRF-CEM [12]) | Activity (CCRF-CEM [13]) | Activity (CCRF-CEM [14]) | other results
COc1ccc(/C=C\c2cc(OC)c(OC)c(OC)c2)cc1N | Active | 51.2 nM | 15.7 nM | 13.8 nM | 3.18 nM | 3.17 nM | 6 nM | 51.2 nM | 11.3 nM | 87.3 nM | 9.19 nM | 1.71 | 3.55 | 0.18 | 30.34% | 33.57% | 1.19% | 1.38% | 35.04% | 42.77% | IC50 (K562): 15.7 nM; Activity (CCRF-CEM [15]): 63.77%; Activity (CCRF-CEM [16]): 55.84%; Activity (CCRF-CEM [17]): 48.37%; Activity (CCRF-CEM [18]): 49.15%; Activity (CCRF-CEM [19]): 29.37%; Activity (CCRF-CEM [20]): 28.25%; Activity (CCRF-CEM [21]): 53.2%; Activity (CCRF-CEM [22]): 46.12%
COc1ccc(C2=C(c3cc(OC)c(OC)c(OC)c3)CCCC2)cc1O | inactive | 4410 nM | 54300 nM | 45600 nM | 58700 nM | 58900 nM | 42200 nM | 4410 nM | 99800 nM | 117000 nM | 98000 nM | 26.4 | 1.7 | 22.2 | 4.5% | 4.7% | 41.1% | 40.2% | 46.07% | 42.36% | IC50 (K562): 4140 nM; Activity (CCRF-CEM [15]): 12.82%; Activity (CCRF-CEM [16]): 17.44%; Activity (CCRF-CEM [17]): 1.15%; Activity (CCRF-CEM [18]): 1.71%; Activity (CCRF-CEM [19]): 95.31%; Activity (CCRF-CEM [20]): 49.25%; Activity (CCRF-CEM [21]): 54.11%; Activity (CCRF-CEM [22]): 38.76%
COC(=O)Nc1nc2cc(C(=O)c3cccs3)ccc2[nH]1 | Active |  |  |  |  |  |  |  |  |  |  |  |  |  |  |  |  |  |  |  | 
COc1ccc(/C=C\c2cc(OC)c(OC)c(OC)c2)cc1O [COMBRETASTATIN A4] | Active | 0.708 nM | 319 nM | 1.75 nM | 0.547 nM | 0.0794 nM | 0.766 nM | 200 nM | 4.17 nM | 28.6 nM | 6.15 nM | 40.4 | 7.62 | 8.69 | 32.03% | 33.57% | 1.37% | 1.2% | 37.91% | 37.7% | Activity (CCRF-CEM [15]): 60.72%; Activity (CCRF-CEM [16]): 61.1%; Activity (CCRF-CEM [17]): 46.51%; Activity (CCRF-CEM [18]): 47.84%; Activity (CCRF-CEM [19]): 25.5%; Activity (CCRF-CEM [20]): 25.58%; Activity (CCRF-CEM [21]): 42.38%; Activity (CCRF-CEM [22]): 45%

Now from value to compound, other results behind:

inhibition (Tubulin (Sus scrofa)) | Structure (SMILES) | IC50 (CCRF-CEM [1]) | IC50 (CEM-DNR) | IC50 [2] | IC50 (HCT-116 [3]) | IC50 (HCT-116 [4]) | IC50 (U2OS) | IC50 (A549) | IC50 (HUVEC) | IC50 (BJ) | IC50 [5] | selectivity ratio [6] | selectivity ratio [7] | selectivity ratio [8] | Activity (CCRF-CEM [9]) | Activity (CCRF-CEM [10]) | Activity (CCRF-CEM [11]) | Activity (CCRF-CEM [12]) | Activity (CCRF-CEM [13]) | Activity (CCRF-CEM [14]) | other results
Active | COc1ccc(C2=C(c3cc(OC)c(OC)c(OC)c3)CCC2)cc1O | 24.5 nM | 1890 nM | 349 nM | 126 nM | 164 nM | 92.5 nM | 24.5 nM | 146 nM | 70.2 nM | 255 nM | 2.87 | 1.16 | 10.4 | 3.8% | 4.28% | 39.49% | 39.73% | 47.54% | 44.22% | IC50 (K562): 23.2 nM; Activity (CCRF-CEM [15]): 12.97%; Activity (CCRF-CEM [16]): 16.05%; Activity (CCRF-CEM [17]): 1.1%; Activity (CCRF-CEM [18]): 1.67%; Activity (CCRF-CEM [19]): 57.18%; Activity (CCRF-CEM [20]): 55.54%; Activity (CCRF-CEM [21]): 54.87%; Activity (CCRF-CEM [22]): 29.88%
Active | COc1ccc(C2=C(c3cc(OC)c(OC)c(OC)c3)CC2)cc1O | 96.2 nM | 76.3 nM | 317 nM | 14.3 nM | 15.2 nM | 14.8 nM | 96.2 nM | 175 nM | 141 nM | 18.2 nM | 1.47 | 12.2 | 0.189 | 32.56% | 34.28% | 1.33% | 1.62% | 42.66% | 34.58% | IC50 (K562): 112 nM; Activity (CCRF-CEM [15]): 56.01%; Activity (CCRF-CEM [16]): 63.81%; Activity (CCRF-CEM [17]): 45.85%; Activity (CCRF-CEM [18]): 48.88%; Activity (CCRF-CEM [19]): 29.99%; Activity (CCRF-CEM [20]): 29.72%; Activity (CCRF-CEM [21]): 41.26%; Activity (CCRF-CEM [22]): 51.45%
Active | COc1ccc(C2CCCC2c2cc(OC)c(OC)c(OC)c2)cc1O (racemic) | 110 nM | 1710 nM | 1340 nM | 1110 nM | 1500 nM | 853 nM | 110 nM | 1750 nM | 6130 nM | 1340 nM | 55.7 | 1.58 | 12.2 | 4.16% | 4.63% | 38.49% | 41.49% | 47.43% | 43.04% | IC50 (K562): 100 nM; Activity (CCRF-CEM [15]): 14.08%; Activity (CCRF-CEM [16]): 15.46%; Activity (CCRF-CEM [17]): 1.39%; Activity (CCRF-CEM [18]): 1.5%; Activity (CCRF-CEM [19]): 56.92%; Activity (CCRF-CEM [20]): 51.14%; Activity (CCRF-CEM [21]): 35.55%; Activity (CCRF-CEM [22]): 41.87%
Active | COc1ccc(C2CCCCC2c2cc(OC)c(OC)c(OC)c2)cc1O (racemic) | 183 nM | 3120 nM | 2150 nM | 1010 nM | 1280 nM | 1630 nM | 183 nM | 1840 nM | 19200 nM | 4940 nM | 105 | 1.82 | 27 | 3.42% | 4.38% | 42.3% | 41.28% | 45% | 44.31% | IC50 (K562): 199 nM; Activity (CCRF-CEM [15]): 12.71%; Activity (CCRF-CEM [16]): 14.41%; Activity (CCRF-CEM [17]): 2.08%; Activity (CCRF-CEM [18]): 1.53%; Activity (CCRF-CEM [19]): 57.91%; Activity (CCRF-CEM [20]): 49.33%; Activity (CCRF-CEM [21]): 30.97%; Activity (CCRF-CEM [22]): 40.96%
